This note sets out measurements from patent US20260285809A1, “CRYSTAL OF N-(BENZOYL)-PHENYLALANINE COMPOUND, AND PHARMACEUTICAL COMPOSITION THEREOF, AND PREPARATION METHOD THEREFOR AND USE THEREOF” (Hangzhou Apeloa Medicine Research Institute Co., Ltd., priority 2022, published 2026).

Type in all cases: physicochemical
Data set [1] can be described thus: Hygroscopicity by dynamic moisture absorber (DVS). The settings on record: for Weight gain at 80% RH: DVS, 25° C.; for Hygroscopicity (definition criteria for hygroscopic weight gain): from weight gain at 80% RH. How it is done: The humidity change for each gradient within 0%~90% is 10%. Airflow: 200 ml/min; temperature: 25° C.; testing point: one testing point taken every 10% increase in humidity.
Take an appropriate amount of the test sample (the compound shown by Formula (I) in the form of Crystal Form A) to test its hygroscopicity with a dynamic moisture absorber.
Take an appropriate amount of the test sample (the compound shown by Formula (II) in the form of Crystal Form B) to test its hygroscopicity with a dynamic moisture absorber.

Data set [2] in a line: Solid-state stability under high temperature, high humidity, light exposure and acceleration conditions (HPLC purity, XRPD form). To be noted: for remaining at 168 h / remaining at 360 h: solid state. From the text: Sample on the 7th and 15th day to observe the color change of the samples. Analyze the sample purity and crystal form through HPLC and XPRD detection, respectively.
Sample on the 15th day to observe the color change of the sample. Analyze the sample purity and crystal form through HPLC and XPRD detection, respectively.

The nature of data set [3]: Solubility in biological media (FaSSIF, FeSSIF), HPLC detection. The settings on record: for solubility at 0.5 h / solubility at 2 h / solubility at 24 h / Solubility: 37° C. The protocol: Add 20 mg of the sample (the compound shown by Formula (I) in the form of Crystal Form A) into a 10 ml conical tube, and then add 4 ml of water or biological medium (FeSSIF (pH 5.0) or FaSSIF (pH 6.5)), respectively. Shake the solution at 37° C. for 24 h in a constant temperature bath at 1000 rpm, and take samples at 0.5 h, 2 h and 24 h, respectively. Filter the samples through an aquo-system microporous filter membrane and discard the initial filtrate to obtain the test solution.
Perform an HPLC detection for the test solution ([…]), and calculate the sample concentration according to the standard curve method.
Add 20 mg of the sample (the compound shown by Formula (II) in the form of Crystal Form B) into a 10 ml conical tube, and then add 4 ml of water or biological medium (FeSSIF (pH 5.0) or FaSSIF (pH 6.5)), respectively. Shake the solution at 37° C. for 24 h in a constant temperature bath at 1000 rpm, and take samples at 0.5 h, 2 h and 24 h, respectively. Filter the samples through an aquo-system microporous filter membrane and discard the initial filtrate to obtain the test solution.

[4] abbreviates: Acceleration 40° C./75% RH, 15d.

Structures are written as SMILES. In brackets after ≈: the same amount, converted by molar mass.

The term amount remaining denotes the share of the starting amount still present when the sample was taken. High values mean less turnover, low ones more turnover. The solubility is how much of the substance goes into solution per volume. Lower therefore signals a poorly soluble substance. Consider `O=C(N[C@@H](Cc1ccc(N2C(=O)C3(CC3)c3ccc(F)c(F)c32)cc1)C(=O)O)c1c(F)cccc1Cl` [Crystal Form A, (S)-2-(2-chloro-6-fluorobenzoyl amido)-3-(4-(6′,7′-difluoro-2′-oxospiro [cyclopropane-1,3′-indoline]-1′-yl)phenyl) propionic acid], for which, in data set [1], the “Weight gain at 80% RH” value is listed as 0.09%. The “Hygroscopicity (definition criteria for hygroscopic weight gain)” value in data set [1] is “no or almost no hygroscopicity”. Also, the “Change in purity and crystal form (in words)” value in data set [2] (15 days at 60° C., 92.5% RH, 4500 lux and 40° C./75% RH) was “no significant changes”. The “Crystal form (XRPD)” value in data set [2] (Acceleration 40° C./75% RH, 7d) is listed as “Unchanged”; in data set [2] (setting [4]), “Unchanged”; in data set [2] (High humidity 92.5% RH, 7d), “Unchanged”; in data set [2] (High humidity 92.5% RH, 15d), “Unchanged”; in data set [2] (High temperature 60° C., 7d), “Unchanged”; in data set [2] (High temperature 60° C., 15d), “Unchanged”. The “Crystal form (XRPD)” value in data set [2] (Light exposure 4500 lux, 7d) was “Unchanged”; in data set [2] (Light exposure 4500 lux, 15d), “Unchanged”. The amount remaining at 168 h worked out at 99.4% in data set [2] (Acceleration 40° C./75% RH, 7d); 99.3% in data set [2] (High humidity 92.5% RH, 7d); 99.4% in data set [2] (High temperature 60° C., 7d); 99.2% in data set [2] (Light exposure 4500 lux, 7d). In addition, the share remaining at 360 h turned out to be 99.4% in data set [2] (setting [4]); 99.3% in data set [2] (High humidity 92.5% RH, 15d); 99.4% in data set [2] (High temperature 60° C., 15d); 99.2% in data set [2] (Light exposure 4500 lux, 15d). Further, the solubility at 0.5 h in data set [3] (FaSSIF (pH 6.5), 0.5 h) was 2130 µg/mL (≈ 4140 µM); in data set [3] (FeSSIF (pH 5.0), 0.5 h), 460 µg/mL (≈ 893 µM). Further, the solubility at 2 h in data set [3] (FaSSIF (pH 6.5), 2 h) is 2230 µg/mL (≈ 4330 µM); in data set [3] (FeSSIF (pH 5.0), 2 h), 480 µg/mL (≈ 932 µM). Moreover, the solubility at 24 h in data set [3] (FaSSIF (pH 6.5), 24 h) is 2220 µg/mL (≈ 4310 µM); in data set [3] (FeSSIF (pH 5.0), 24 h), 490 µg/mL (≈ 952 µM). Also, the “Solubility in FeSSIF and FaSSIF (in words)” value in data set [3] was “good solubility”; in data set [3] (listed as Crystal form A) it was “relatively good”.

The term Solubility denotes the dissolved amount per volume that the medium holds. Read a low Solubility as little dissolved substance. In the case of `O=C(N[C@@H](Cc1ccc(N2C(=O)C3(CC3)c3ccc(F)c(F)c32)cc1)C(=O)O)c1c(F)cccc1Cl` [Crystal Form B, (S)-2-(2-chloro-6-fluorobenzoyl amido)-3-(4-(6′,7′-difluoro-2′-oxospiro [cyclopropane-1,3′-indoline]-1′-yl)phenyl) propionic acid], the “Weight gain at 80% RH” value in data set [1] was 0.71%. Further, the “Hygroscopicity (definition criteria for hygroscopic weight gain)” value in data set [1] is “slight hygroscopicity”. The Solubility in data set [3] (FaSSIF (pH 6.5), 0.5 h) was 3187 µg/mL (≈ 6190 µM); in data set [3] (FaSSIF (pH 6.5), 2 h), 2961 µg/mL (≈ 5750 µM); in data set [3] (FaSSIF (pH 6.5), 24 h), 2791 µg/mL (≈ 5420 µM); in data set [3] (FeSSIF (pH 5.0), 0.5 h), 869 µg/mL (≈ 1690 µM); in data set [3] (FeSSIF (pH 5.0), 2 h) it was 815 µg/mL (≈ 1580 µM); in data set [3] (FeSSIF (pH 5.0), 24 h), 734 µg/mL (≈ 1430 µM). In data set [3], the “Solubility in FeSSIF and FaSSIF (in words)” value is “relatively good”.
